Assay results taken from ChEMBL document CHEMBL4028801, “A multifactorial approach to hepatobiliary transporter assessment enables improved therapeutic compound development” (Toxicol Sci, 2013).
Counter-ions that a name gives are not always drawn.

Tests used:
[1] = target: T1, ATP-binding cassette sub-family C member 4 (Homo sapiens, UniProt O15439); experiment: Inhibition of human MRP4 overexpressed in Sf9 cell membrane vesicles assessed as uptake of [3H]-estradiol-17beta-D-glucuronide in presence of ATP and GSH measured after 20 mins by membrane vesicle transport assay; type: ADME, cell-based
T1 sequence (O15439 whole entry): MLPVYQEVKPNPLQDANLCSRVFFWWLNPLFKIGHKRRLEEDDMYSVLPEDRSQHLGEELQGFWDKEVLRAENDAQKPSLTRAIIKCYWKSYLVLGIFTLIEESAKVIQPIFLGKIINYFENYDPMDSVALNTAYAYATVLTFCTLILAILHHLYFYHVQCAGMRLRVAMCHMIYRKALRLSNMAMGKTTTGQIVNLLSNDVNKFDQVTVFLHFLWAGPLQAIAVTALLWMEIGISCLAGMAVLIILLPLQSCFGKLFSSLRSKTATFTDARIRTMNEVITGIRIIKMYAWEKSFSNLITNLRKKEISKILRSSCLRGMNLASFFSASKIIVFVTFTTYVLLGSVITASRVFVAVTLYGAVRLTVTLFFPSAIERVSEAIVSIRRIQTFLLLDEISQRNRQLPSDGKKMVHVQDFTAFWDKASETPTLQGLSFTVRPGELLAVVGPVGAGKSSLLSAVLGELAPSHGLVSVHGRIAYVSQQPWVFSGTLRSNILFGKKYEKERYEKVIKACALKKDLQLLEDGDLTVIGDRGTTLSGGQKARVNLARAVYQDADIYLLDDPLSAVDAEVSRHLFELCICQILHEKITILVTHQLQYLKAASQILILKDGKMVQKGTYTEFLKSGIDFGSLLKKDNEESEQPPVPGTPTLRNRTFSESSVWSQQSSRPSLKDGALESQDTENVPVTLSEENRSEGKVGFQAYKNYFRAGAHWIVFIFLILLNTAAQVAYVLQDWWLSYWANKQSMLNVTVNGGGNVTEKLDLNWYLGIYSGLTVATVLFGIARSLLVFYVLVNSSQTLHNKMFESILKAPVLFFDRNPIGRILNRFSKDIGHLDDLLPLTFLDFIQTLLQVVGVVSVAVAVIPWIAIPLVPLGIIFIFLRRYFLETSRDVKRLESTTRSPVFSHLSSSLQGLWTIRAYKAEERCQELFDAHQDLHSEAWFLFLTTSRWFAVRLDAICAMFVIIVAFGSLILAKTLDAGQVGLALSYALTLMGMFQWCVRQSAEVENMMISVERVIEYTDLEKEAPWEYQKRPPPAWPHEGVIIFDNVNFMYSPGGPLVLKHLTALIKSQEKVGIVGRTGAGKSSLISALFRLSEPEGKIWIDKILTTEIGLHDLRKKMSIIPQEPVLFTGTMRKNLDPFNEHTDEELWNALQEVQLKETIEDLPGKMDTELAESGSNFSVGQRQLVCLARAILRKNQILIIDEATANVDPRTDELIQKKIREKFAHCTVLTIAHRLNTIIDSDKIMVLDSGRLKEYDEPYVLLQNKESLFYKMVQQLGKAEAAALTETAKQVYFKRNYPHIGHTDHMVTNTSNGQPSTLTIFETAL

[2] = target: ATP-binding cassette sub-family C member 3 (Homo sapiens, UniProt O15438); experiment: Inhibition of human MRP3 overexpressed in Sf9 insect cell membrane vesicles assessed as uptake of [3H]-estradiol-17beta-D-glucuronide in presence of ATP and GSH measured after 10 mins by membrane vesicle transport assay; type: ADME, cell-based
Bile salt export pump = Bile salt export pump (Homo sapiens, UniProt O95342); experiment: Inhibition of human BSEP overexpressed in Sf9 cell membrane vesicles assessed as uptake of [3H]-taurocholate in presence of ATP measured after 15 to 20 mins by membrane vesicle transport assay; type: ADME, cell-based
[3] = target: ATP-binding cassette sub-family C member 2 (Homo sapiens, UniProt Q92887); experiment: Inhibition of human MRP2 overexpressed in Sf9 cell membrane vesicles assessed as uptake of [3H]-estradiol-17beta-D-glucuronide in presence of ATP and GSH measured after 20 mins by membrane vesicle transport assay
Chain of ATP-binding cassette sub-family C member 2 (Q92887 whole entry): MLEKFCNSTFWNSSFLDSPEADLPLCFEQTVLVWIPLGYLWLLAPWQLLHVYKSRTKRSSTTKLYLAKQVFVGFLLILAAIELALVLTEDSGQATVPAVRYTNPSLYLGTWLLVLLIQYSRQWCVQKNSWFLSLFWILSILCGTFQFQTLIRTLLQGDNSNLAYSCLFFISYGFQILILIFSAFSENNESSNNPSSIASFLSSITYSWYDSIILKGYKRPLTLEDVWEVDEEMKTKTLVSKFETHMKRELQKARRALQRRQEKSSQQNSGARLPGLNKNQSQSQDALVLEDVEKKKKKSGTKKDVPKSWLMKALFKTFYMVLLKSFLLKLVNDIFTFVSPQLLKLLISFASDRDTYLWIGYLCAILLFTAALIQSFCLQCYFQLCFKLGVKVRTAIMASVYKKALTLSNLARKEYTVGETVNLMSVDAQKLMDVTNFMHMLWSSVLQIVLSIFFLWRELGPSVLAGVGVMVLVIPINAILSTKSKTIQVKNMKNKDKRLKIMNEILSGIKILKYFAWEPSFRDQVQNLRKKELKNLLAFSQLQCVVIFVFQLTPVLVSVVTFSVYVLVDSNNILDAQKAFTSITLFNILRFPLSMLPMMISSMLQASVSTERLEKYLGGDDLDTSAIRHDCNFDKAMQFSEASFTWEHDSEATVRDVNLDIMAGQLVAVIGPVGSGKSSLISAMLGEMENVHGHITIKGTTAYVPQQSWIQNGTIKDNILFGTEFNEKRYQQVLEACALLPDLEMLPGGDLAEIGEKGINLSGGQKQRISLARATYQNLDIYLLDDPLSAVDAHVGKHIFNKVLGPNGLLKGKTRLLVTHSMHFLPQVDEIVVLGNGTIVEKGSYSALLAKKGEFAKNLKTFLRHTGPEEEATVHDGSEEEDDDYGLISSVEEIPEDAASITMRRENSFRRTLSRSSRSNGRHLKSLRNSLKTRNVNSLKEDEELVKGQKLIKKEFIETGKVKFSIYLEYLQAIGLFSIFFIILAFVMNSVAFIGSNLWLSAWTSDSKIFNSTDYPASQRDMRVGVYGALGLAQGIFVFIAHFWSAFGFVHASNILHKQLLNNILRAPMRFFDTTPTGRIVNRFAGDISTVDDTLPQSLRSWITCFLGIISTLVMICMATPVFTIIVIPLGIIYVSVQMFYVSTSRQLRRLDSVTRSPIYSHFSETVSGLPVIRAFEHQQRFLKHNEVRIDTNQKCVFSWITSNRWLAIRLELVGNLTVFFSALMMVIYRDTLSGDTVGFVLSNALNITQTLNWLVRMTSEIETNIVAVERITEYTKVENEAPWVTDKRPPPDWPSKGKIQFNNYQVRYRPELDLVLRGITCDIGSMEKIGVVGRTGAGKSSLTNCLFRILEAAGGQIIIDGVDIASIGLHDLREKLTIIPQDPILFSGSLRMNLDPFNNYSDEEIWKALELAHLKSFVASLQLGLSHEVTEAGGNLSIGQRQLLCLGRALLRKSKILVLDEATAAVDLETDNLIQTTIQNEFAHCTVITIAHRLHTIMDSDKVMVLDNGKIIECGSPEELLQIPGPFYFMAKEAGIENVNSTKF

Chain of Bile salt export pump (O95342 whole entry): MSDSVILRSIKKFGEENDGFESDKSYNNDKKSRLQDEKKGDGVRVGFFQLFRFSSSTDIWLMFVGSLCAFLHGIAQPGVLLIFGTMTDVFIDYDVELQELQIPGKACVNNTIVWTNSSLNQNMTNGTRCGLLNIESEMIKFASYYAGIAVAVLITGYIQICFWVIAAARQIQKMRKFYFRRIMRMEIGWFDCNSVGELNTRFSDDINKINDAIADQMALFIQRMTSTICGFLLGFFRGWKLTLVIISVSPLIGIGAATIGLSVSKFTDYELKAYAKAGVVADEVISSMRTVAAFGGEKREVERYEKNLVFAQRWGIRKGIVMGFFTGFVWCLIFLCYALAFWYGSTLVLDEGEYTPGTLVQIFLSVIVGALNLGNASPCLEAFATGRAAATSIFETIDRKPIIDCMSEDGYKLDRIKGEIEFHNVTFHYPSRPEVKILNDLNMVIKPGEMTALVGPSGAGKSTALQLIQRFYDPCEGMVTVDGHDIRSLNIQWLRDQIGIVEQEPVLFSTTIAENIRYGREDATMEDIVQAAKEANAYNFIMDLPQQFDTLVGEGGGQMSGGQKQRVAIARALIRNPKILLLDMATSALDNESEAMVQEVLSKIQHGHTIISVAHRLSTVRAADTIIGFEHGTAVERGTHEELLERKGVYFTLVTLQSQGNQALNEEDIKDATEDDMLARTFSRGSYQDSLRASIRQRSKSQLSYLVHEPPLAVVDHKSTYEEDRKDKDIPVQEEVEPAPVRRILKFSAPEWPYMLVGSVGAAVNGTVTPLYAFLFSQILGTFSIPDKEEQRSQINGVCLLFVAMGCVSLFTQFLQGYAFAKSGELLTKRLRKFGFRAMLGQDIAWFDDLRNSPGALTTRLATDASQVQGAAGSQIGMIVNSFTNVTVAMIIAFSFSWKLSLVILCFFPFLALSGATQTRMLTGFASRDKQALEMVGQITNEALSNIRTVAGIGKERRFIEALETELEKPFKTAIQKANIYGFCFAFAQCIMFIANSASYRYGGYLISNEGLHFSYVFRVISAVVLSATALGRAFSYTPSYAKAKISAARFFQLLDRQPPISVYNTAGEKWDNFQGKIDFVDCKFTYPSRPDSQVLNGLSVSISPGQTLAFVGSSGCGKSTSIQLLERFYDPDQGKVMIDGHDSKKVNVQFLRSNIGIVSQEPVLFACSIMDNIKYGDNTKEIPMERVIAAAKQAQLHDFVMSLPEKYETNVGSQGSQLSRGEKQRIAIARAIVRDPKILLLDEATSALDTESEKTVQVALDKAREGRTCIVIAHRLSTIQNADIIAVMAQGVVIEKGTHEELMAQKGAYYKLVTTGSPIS
Chain of ATP-binding cassette sub-family C member 3 (O15438 whole entry): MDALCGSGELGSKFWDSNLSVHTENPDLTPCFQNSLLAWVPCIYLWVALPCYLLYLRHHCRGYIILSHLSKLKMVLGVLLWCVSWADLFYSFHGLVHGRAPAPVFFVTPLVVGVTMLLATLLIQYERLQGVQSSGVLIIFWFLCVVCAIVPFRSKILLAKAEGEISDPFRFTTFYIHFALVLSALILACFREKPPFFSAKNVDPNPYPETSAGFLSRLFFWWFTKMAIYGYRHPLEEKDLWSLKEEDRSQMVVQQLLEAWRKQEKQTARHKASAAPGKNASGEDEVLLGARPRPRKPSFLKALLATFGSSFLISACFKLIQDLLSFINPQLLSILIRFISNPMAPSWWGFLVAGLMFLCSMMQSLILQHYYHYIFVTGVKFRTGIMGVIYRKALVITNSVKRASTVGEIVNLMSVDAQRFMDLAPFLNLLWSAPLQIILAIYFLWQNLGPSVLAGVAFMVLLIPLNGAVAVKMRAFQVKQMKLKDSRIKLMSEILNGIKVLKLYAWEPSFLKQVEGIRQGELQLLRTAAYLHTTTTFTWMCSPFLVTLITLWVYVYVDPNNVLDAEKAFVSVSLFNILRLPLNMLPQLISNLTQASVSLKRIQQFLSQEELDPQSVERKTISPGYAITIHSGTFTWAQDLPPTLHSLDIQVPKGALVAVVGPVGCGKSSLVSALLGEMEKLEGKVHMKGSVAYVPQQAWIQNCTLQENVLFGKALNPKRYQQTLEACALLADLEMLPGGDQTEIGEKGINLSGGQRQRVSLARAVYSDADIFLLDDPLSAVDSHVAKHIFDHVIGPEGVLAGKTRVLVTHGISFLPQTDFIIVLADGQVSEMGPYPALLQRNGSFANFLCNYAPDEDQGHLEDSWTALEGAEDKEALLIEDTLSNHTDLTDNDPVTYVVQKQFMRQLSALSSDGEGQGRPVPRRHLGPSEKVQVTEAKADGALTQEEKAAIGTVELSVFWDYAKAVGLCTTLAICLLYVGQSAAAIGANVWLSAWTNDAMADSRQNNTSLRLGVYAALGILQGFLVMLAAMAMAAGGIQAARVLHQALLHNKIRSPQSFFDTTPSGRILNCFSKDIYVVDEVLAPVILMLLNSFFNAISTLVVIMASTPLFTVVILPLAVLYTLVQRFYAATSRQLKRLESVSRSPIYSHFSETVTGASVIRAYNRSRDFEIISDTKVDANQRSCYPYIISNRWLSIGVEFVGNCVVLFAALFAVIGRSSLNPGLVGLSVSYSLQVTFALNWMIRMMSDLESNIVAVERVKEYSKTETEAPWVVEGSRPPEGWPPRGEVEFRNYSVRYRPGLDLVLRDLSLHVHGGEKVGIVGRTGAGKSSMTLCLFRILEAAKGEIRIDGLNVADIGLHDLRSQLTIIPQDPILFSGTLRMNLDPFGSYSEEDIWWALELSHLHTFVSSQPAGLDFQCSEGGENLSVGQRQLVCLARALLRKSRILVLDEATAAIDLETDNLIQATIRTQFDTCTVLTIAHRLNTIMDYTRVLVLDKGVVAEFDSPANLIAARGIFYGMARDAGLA

Molecule	IC50 [1] [µM]	IC50 [2] [µM]	IC50 (Bile salt export pump) [µM]	IC50 [3] [µM]
CC(C)(Oc1ccc(C2CC2(Cl)Cl)cc1)C(=O)O (stereo not given) [CIPROFIBRATE]	> 133	> 133	> 133	
Clc1ccc2c(c1)C(N1CCNCC1)=Nc1ccccc1O2 [AMOXAPINE]	> 133	> 133	> 133	> 133
C[C@H]1O[C@@H](O[C@H]2[C@@H](O)C[C@H](O[C@H]3[C@@H](O)C[C@H](O[C@H]4CC[C@@]5(C)[C@H](CC[C@@H]6[C@@H]5CC[C@]5(C)[C@@H](C7=CC(=O)OC7)CC[C@]65O)C4)O[C@@H]3C)O[C@@H]2C)C[C@H](O)[C@@H]1O [DIGITOXIN]	> 133	> 133	31	> 133
O=C(O)P(=O)(O)O [FOSCARNET SODIUM]	> 133	> 133	> 133	> 133
CCCCNc1cc(C(=O)O)cc(S(N)(=O)=O)c1Oc1ccccc1 [BUMETANIDE]	> 133	> 133	> 133	
N#Cc1ccc(C(c2ccc(C#N)cc2)n2cncn2)cc1 [LETROZOLE]			> 133	
COc1cccc([C@]2(O)CCCC[C@H]2CN(C)C)c1			> 133	
COCCCOc1cc(C[C@@H](C[C@H](N)[C@@H](O)C[C@H](C(=O)NCC(C)(C)C(N)=O)C(C)C)C(C)C)ccc1OC [ALISKIREN FUMARATE]			> 133	
Nc1c(CC(=O)O)cccc1C(=O)c1ccc(Br)cc1 [BROMFENAC]	> 133	> 133	> 133	
O=c1n(CCCN2CCN(c3cccc(Cl)c3)CC2)nc2ccccn12 [TRAZODONE]	> 133	> 133	> 133	
COc1cc2nc(N(C)CCCNC(=O)C3CCCO3)nc(N)c2cc1OC (stereo not given) [ALFUZOSIN HYDROCHLORIDE]			> 133	
O=c1n(CCCN2CCN(c3cccc(Cl)c3)CC2)nc2ccccn12 [TRAZODONE HYDROCHLORIDE]	> 133	> 133	> 133	
C[C@@H](O)[C@H]1C(=O)N2C(C(=O)O)=C(SCCN=CN)C[C@H]12			> 133	
Nc1nnc(-c2cccc(Cl)c2Cl)c(N)n1 [LAMOTRIGINE]			> 133	
CCCc1nn(C)c2c(=O)[nH]c(-c3cc(S(=O)(=O)N4CCN(C)CC4)ccc3OCC)nc12 [SILDENAFIL CITRATE]		> 133	132	> 133
CC(=O)[C@H]1[C@H](C#N)C[C@H]2[C@@H]3CC=C4C[C@@H](O)CC[C@]4(C)[C@H]3CC[C@@]21C [PREGNENOLONE CARBONITRILE]	> 133	> 133	> 133	
CC(C)(S)[C@@H](N)C(=O)O [PENICILLAMINE]			> 133	
CCCCCC[C@H]1C(=O)O[C@H](C)[C@H](NC(=O)c2cccc(NC=O)c2O)C(=O)O[C@@H](C)[C@@H]1OC(=O)CC(C)C [ANTIMYCIN A]	> 133	> 133	59.6	
Cc1cc(C2CCCCC2)n(O)c(=O)c1 [CICLOPIROX]	> 133	> 133	> 133	
Cc1cnc(NC(=O)C2=C(O)c3ccccc3S(=O)(=O)N2C)s1 [MELOXICAM]	> 133	> 133	77.5	
Cc1ccc(C)c(OCCCC(C)(C)C(=O)O)c1 [GEMFIBROZIL]	> 133	> 133	> 133	
CCOC(=O)[C@H](CCc1ccccc1)N[C@@H](C)C(=O)N1[C@H](C(=O)O)C[C@H]2CCCC[C@@H]21 [TRANDOLAPRIL]	> 133	> 133	> 133	
CC1=C(CC(=O)O)c2cc(F)ccc2/C1=C\c1ccc([S+](C)[O-])cc1 (stereo not given)	> 133	> 133	> 133	
CN1C(=O)CN=C(c2ccccc2)c2cc(Cl)ccc21 [DIAZEPAM]	> 133	> 133	> 133	

Molecule	IC50 [1] [µM]	IC50 [2] [µM]	IC50 (Bile salt export pump) [µM]	IC50 [3] [µM]
CCOC(=O)[C@H](CCc1ccccc1)N[C@@H](C)C(=O)N1Cc2ccccc2C[C@H]1C(=O)O	> 133	> 133	94	
CC(=O)Nc1ccc(S(=O)(=O)Nc2ccc([N+](=O)[O-])cc2)cc1	> 133	> 133	> 133	
COc1c(O[C@@H]2O[C@H](CO)[C@@H](O)[C@H](O)[C@H]2O)cc2c(c1OC)-c1ccc(SC)c(=O)cc1[C@@H](NC(C)=O)CC2 [THIOCOLCHICOSIDE]			> 133	
CNC(=C[N+](=O)[O-])NCCSCc1ccc(CN(C)C)o1 [RANITIDINE]	> 133	> 133		> 133
CN(C)CCCN1c2ccccc2CCc2ccc(Cl)cc21 [CLOMIPRAMINE]	> 133	> 133		> 133
COc1cc2nc(N3CCN(C(=O)c4ccco4)CC3)nc(N)c2cc1OC [PRAZOSIN]	12.5	> 133	> 133	
N#C/C(=C1/SCC(c2ccccc2Cl)S1)n1ccnc1 (stereo not given) [LANOCONAZOLE]	> 133	> 133	9.65	
Cc1ncc([N+](=O)[O-])n1CCO [METRONIDAZOLE]	> 133	> 133		> 133
O=C(O)COC(=O)Cc1ccccc1Nc1c(Cl)cccc1Cl [ACECLOFENAC]	> 133	> 133	105	
CCN(CC)CCNC(=O)c1c(C)[nH]c(/C=C2\C(=O)Nc3ccc(F)cc32)c1C	> 133	> 133		> 133
OC[C@H]1O[C@@H](n2cnc3c2NC=NC[C@H]3O)C[C@@H]1O [PENTOSTATIN]			> 133	
CC(C)NCC(O)COc1cccc2[nH]ccc12 (stereo not given) [PINDOLOL]	> 133	> 133		> 133
CC/C(=C(\c1ccccc1)c1ccc(OCCN(C)C)cc1)c1ccccc1 [TAMOXIFEN]	> 133	> 133		> 133
CN1CCN(CCCN2c3ccccc3Sc3ccc(Cl)cc32)CC1 [PROCHLORPERAZINE]	> 133	> 133		> 133
Cn1cc[nH]c1=S [METHIMAZOLE]	> 133	> 133		> 133
CCOC(=O)C1=C(C)NC(C)=C(C(=O)OC)C1c1cccc([N+](=O)[O-])c1 (stereo not given) [NITRENDIPINE]	> 133	> 133	22.5	
C[C@](N)(Cc1ccc(O)c(O)c1)C(=O)O	8.08	41.2	> 133	
O=C(O)[C@H]1/C(=C/CO)O[C@@H]2CC(=O)N21 [CLAVULANATE POTASSIUM]			> 133	
O=C1CCc2ccc(OCCCCN3CCN(c4cccc(Cl)c4Cl)CC3)cc2N1 [ARIPIPRAZOLE]	> 133	> 133		> 133
Sc1ncnc2nc[nH]c12 [MERCAPTOPURINE ANHYDROUS]			> 133	
Cc1ccc(O)c([C@H](CCN(C(C)C)C(C)C)c2ccccc2)c1 [TOLTERODINE TARTRATE]	> 133	> 133		> 133
CC(C)[C@@H]1NC(=O)[C@H](C)OC(=O)[C@@H](C(C)C)NC(=O)[C@@H](C(C)C)OC(=O)[C@H](C(C)C)NC(=O)[C@H](C)OC(=O)[C@@H](C(C)C)NC(=O)[C@@H](C(C)C)OC(=O)[C@H](C(C)C)NC(=O)[C@H](C)OC(=O)[C@@H](C(C)C)NC(=O)[C@@H](C(C)C)OC1=O [VALINOMYCIN]	> 133	> 133		> 133
CCN(CC)CCNC(=O)c1ccc(N)cc1 [PROCAINAMIDE]	> 133	> 133		> 133
BIVALIRUDIN	> 133		> 133	> 133
